# Reference: ChEMBL document CHEMBL1157146, “Structure-activity relationship of human GLO I inhibitory natural flavonoids and their growth inhibitory effects” (Bioorg Med Chem, 2008)
# The source made the active and inactive calls. No cut-off for these calls is given here.
# Tests used:
# HL-60 = assay: Antiproliferative activity against human HL60 cells at 30 uM after 48 hrs by MTS assay; assay type: functional, cell-based
# Lactoylglutathione lyase [1] = biological target: T1, Lactoylglutathione lyase (Homo sapiens, UniProt Q04760); assay: Inhibition of human recombinant His-tagged Glyoxalase 1 expressed in Sf21-Baculovirus system
# Target sequence in this assay (Q04760 whole entry): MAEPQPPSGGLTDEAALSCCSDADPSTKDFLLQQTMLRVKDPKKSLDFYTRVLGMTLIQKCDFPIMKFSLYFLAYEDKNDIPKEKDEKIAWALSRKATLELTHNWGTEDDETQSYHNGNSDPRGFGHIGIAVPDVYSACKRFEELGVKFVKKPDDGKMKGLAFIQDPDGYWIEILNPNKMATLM
# Lactoylglutathione lyase [2] = biological target: T1, Lactoylglutathione lyase; assay: Inhibition of human recombinant His-tagged Glyoxalase 1 expressed in Sf21-Baculovirus system at 100 uM
# Target sequence in this assay (Q04760 2-184 limits assumed): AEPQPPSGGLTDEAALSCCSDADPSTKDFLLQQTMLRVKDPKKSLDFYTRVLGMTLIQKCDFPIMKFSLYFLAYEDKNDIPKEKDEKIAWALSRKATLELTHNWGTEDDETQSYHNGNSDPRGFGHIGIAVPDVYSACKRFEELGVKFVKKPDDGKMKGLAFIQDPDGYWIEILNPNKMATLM
Structure (SMILES),Activity (HL-60),IC50 (Lactoylglutathione lyase [1]) [µM],inhibition (Lactoylglutathione lyase [2]) [%]
O=c1c(O[C@@H]2O[C@H](CO)[C@H](O)[C@H](O)[C@H]2O)c(-c2ccc(O)c(O)c2)oc2cc(O)cc(O)c12,Active,,
O=c1cc(-c2ccccc2)oc2cc(O)c(O)c(O)c12 [BAICALEIN],Active,11,
O=c1c(O)c(-c2ccc(O)cc2)oc2cc(O)cc(O)c12 [KAEMPFEROL],Active,20.6,60
COc1c(O[C@H]2O[C@H](C(=O)O)[C@@H](O)[C@H](O)[C@H]2O)cc2oc(-c3ccccc3)cc(=O)c2c1O,Active,,
O=c1c(O)c(-c2ccc(O)c(O)c2)oc2cc(O)cc(O)c12,Active,,
O=c1c(O)c(-c2cc(O)c(O)c(O)c2)oc2cc(O)cc(O)c12,Active,,
O=C(O)[C@H]1O[C@@H](Oc2cc3oc(-c4ccccc4)cc(=O)c3c(O)c2O)[C@H](O)[C@@H](O)[C@@H]1O,Active,,
O=c1cc(-c2ccc(O)c(O)c2)oc2cc(O)cc(O)c12 [LUTEOLIN],Active,7.7,
O=C1C[C@@H](c2ccc(O)cc2)Oc2cc(O)cc(O)c21,Active,,50
N[C@@H](CCC(=O)N[C@@H](CSCc1ccc(Br)cc1)C(=O)NCC(=O)OC1CCCC1)C(=O)OC1CCCC1,Active,,
